According to patent publication EP0258134A1, “Therapeutical compositions containing benzhydryl thiomethane derivatives” (LABORATOIRE L. LAFON, priority 1986, dated 1988):

How the values were obtained:
[1] = tested on: rat; assay: Interaction with amphetamine, rat; format: in vivo; conditions: rat, 16, mais surtout 64 mg/kg, amphétamine 2 mg/kg i.p.
Method: L'amphétamine (2 mg/kg) est injectée par Voie intrapéritonéale à des lots de 6 rats, une demi-heure après l'administration du composé CRL 41 334.

[2] = tested on: souris; assay: Asphyxic anoxia (gallamine triethiodide); format: in vivo; conditions: 128 mg/kg, triiodoéthylate de gallamine 32 mg/kg i.p.
Method: Des lots de 20 souris reçoivent le composé CRL 41 334 une demi-heure avant l'administration intrapéritonéale de 32 mg/kg de triiodoéthylate de gallamine.
Des lots de 10 souris reçoivent le CRL 40 956 une demi-heure avant l'administration intrapé-ritonéale de 32 mg/kg de triodoéthylate de Gallamine.

[3] = tested on: souris; assay: Traction test; format: in vivo; conditions: half an hour after administration
Text: (§1) Le test est pratiqué sur des lots de 10 souris, une demi-heure après l'administration du composé CRL 41 334.

[4] = tested on: rat; assay: Global behaviour and reactivities, rat, i.p.; format: in vivo
Method: Le composé CRL 41 334, en suspension dans une solution de gomme arabique, a été administré par voie intrapéritonéale sous un volume de 20 ml/kg chez la souris (mâle, NMRI, C.E.R. Janvier) et de 5 ml/kg chez le rat (mâle, CD₁; SPRAGUE DAWLEY, Charles River).
Des lots de 3 animaux sont observés avant, puis 15 mn, 30 mn, 1h, 2h, 3h et 24 heures après l'administration du composé CRL 41 334.
Le CRL 40 956, en suspension dans une solution de gomme arabique a été administré par voie intrapéritonéale sous un volume de 20 ml/kg chez la souris (mâle, NMRI, Evic Céba) et de 5 ml/kg chez le rat (mâle, CD₁, Sprague Dawley, Charles River).
Des lots de 3 animaux sont observés avant, puis 15 mn, 30 mn, 1 h, 2 h, 3 h et 24 heures après l'administration de CRL 40 956.

[5] = tested on: souris; assay: Interaction with apomorphine, mouse; format: in vivo
Method: Des lots de 6 souris reçoivent le composé CRL 41 334 une demi-heure avant l'injection sous-cutanée d'apomorphine, à la dose de 1 ou 16 mg/kg. • a) Apomorphine 1 mg/kg • b) Apomorphine 16 mg/kg

[6] = tested on: homme; assay: Therapeutic use in humans; format: in vivo; conditions: homme, voie orale, 4 fois 50 mg par jour
[7] = tested on: rat; assay: Interaction with apomorphine, rat; format: in vivo; conditions: 16 et 64 mg/kg, apomorphine 0,5 mg/kg s.c.
Method: Le composé CRL 41 334 est administré à des lots de 6 rats une demi-heure avant l'injection sous-cutanée de 0,5 mg/kg d'apomorphine.
Le CRL 40 956 est administré à des lots de 6 rats une demi-heure avant l'injection sous cutanée de 0,5 mg/kg d'apomorphine.

[8] = tested on: souris; assay: Four-plate test; format: in vivo; conditions: half an hour after administration
Text: as §1

[9] = Solubility in water; format: physicochemical; conditions: water
Text: Le composé est une poudre blanche, insoluble dans l'éther de pétrole, soluble dans l'éther, l'acé-tate d'éthyle et les alcools. Sa solubilité dans l'eau est inférieure à 0,1%.

[10] = tested on: souris; assay: Interaction with barbital; format: in vivo; conditions: souris, 8, 32 et 128mg/kg, barbital 220 mg/kg i.p.
Method: Une demi-heure après l'administration du composé CRL 41 334, des lots de 20 souris reçoivent une injection intrapéritonéale de barbital ([…]).
Une demi-heure après l'administration du CRL 40 956 des lots de 10 souris reçoivent une injection intrapéritonéale de 200 mg/kg de barbital.

[11] = tested on: souris; assay: Motility reduced by hypoxic aggression; format: in vivo
Method: Une demi-heure après avoir reçu le composé CRL 41 334, les souris (10 par dose, 20 témoins) sont soumises à une anoxie hypobare aigüe (dépression de 60 mmHg en 90 secondes, détente de 45 secondes), puis elles sont placées en actimètre où leur motilité est enregistrèe pendant 10 minutes.

[12] = tested on: souris; assay: Behavioural despair (forced immersion); format: in vivo; conditions: souris, 8, 32 et 128 mg/kg
Text: Une demi-heure après avoir reçu le composé CRL 41 334, des lots de 6 souris (mâles, CD₁, Charles River) sont placés dans un bécher rempli d'eau sur une hauteur de 6 cm. On note la durée totale d'immobilité entre la 2ème et la 6ème minutes suivant l'immersion.
Une demi-heure après avoir reçu le CRL 40 956, des lots de 10 souris (mâles CD₁ Charles River) sont plongées dans une enceinte réduite remplie d'eau sur une hauteur de 6 cm. On note la durée totale d'immobilité entre la 2ème et la 6ème minute suivant l'immersion.

[13] = tested on: souris; assay: Motility reduced by habituation to the enclosure; format: in vivo; conditions: dès la dose de 2 mg/kg
Method: Après 18 heures de séjour dans les actimè-tres, les souris (6 par dose, 12 témoins) reçoivent le composé CRL 41 334. Elles sont aussitôt replacées dans leurs enceintes respectives et, une demi-heure plus tard, on enregistre leur motilité pendant 30 minutes.
Après 18 heures de séjour dans les actimètres, les souris (6 par dose, 12 émoins) reçoivent le CRL 41 055. Elles sontaussitôt replacées dans leurs enceintes respectives et, une demi-heure plus tard, on enregistre leur motilité pendant 30 minutes.

[14] = tested on: souris; assay: Interaction with reserpine, mouse; format: in vivo
Method: Quatre heures après l'injection intrapéritonéale de 2,5 mg/kg de réserpine, des lots de 12 souris reçoivent le composé CRL 41 334. • 1 - Action sur la température • 2 - Action sur le ptosis

[15] = souris, 128 mg/kg, réserpine 2,5 mg/kg i.p.

With NC(=O)CSC(c1ccc(F)cc1)c1ccc(F)cc1 [CRL 41 334, 2-(4,4ʹ-difluorobenzhydrylthio)acétamide] the “stéréotypies amphétaminiques” value [1] was “potentialise les stéréotypies amphétaminiques”, the “délai d'apparition de la mort” value [2] was “augmente le délai d'apparition de la mort” and the “délai d'apparition des convulsions” value [2] was “n'est pas modifié”. For the same compound, the incapacité motrice [3] was “ne provoque pas d'incapacité motrice majeure”, the “comportement et réactivités” value ([4]; rat, 64 mg/kg i.p.) was “sédation pendant 15 minutes” and the diamètre pupillaire ([4]; rat, 64 mg/kg i.p., à 1 heure) was “mydriase très modérée et brève”. For the same compound, the “comportement, réactivités, variation du diamètre pupillaire et de la température rectale” value ([4]; rat, 1, 4 et 16 mg/kg i.p.) was “comparables à ceux du lot témoin”, the “hypothermie induite par l'apomorphine” value ([5]; 128 mg/kg, apomorphine 1 mg/kg s.c.) was “aggrave l'hypothermie induite par l'apomorphine” and the température ([5]; 128 mg/kg, compound alone) was “entraîne une hypothermie”. The “comportements de verticalisation et de stéréotypies” value ([5]; apomorphine 1 ou 16 mg/kg s.c.) was “NE SONT PAS MODIFIES”, the “traitement des dépressions des brûlés” value [6] was “bons résultats” and the “stéréotypies induites par l'apomorphine” value [7] was “potentialise”. The “nombre de passages punis” value [8] was “ne modifie pas”, the solubility [9] was under 1000 µg/mL and the “durée du sommeil barbiturique” value [10] was “diminution importante de la durée du sommeil barbiturique”. The “récupération motrice après anoxie hypobare” value ([11]; 32 et 128 mg/kg) was “amélioration est importante”, the “récupération motrice après anoxie hypobare” value ([11]; dès la dose de 2mg/kg) was “amélioration de la récupération” and the “durée de l'immobilité” value [12] was “diminue la durée de l'immobilité”. The “activité motrice chez la souris habituée à son enceinte” value [13] was “reprise nette de l'activité motrice”, the “hypothermie réserpinique” value [14, 15] was “aggrave modérément l'hypothermie réserpinique” and the ptosis [14, 15] was “n'est pas modi-fié”. For the same compound, the “hypothermie et ptosis réserpiniques” value ([14]; souris, 8, 32 ou 128 mg/kg, au temps 24 heures) was “semble s'opposer à l'hypothermie et au ptosis réserpiniques”.
